Data published in patent US7919493B2, “Anititumoral ecteinascidin derivatives” (Pharma Mar, S.A., priority 2001, dated 2011).
In brackets after ≈: the same amount, converted by molar mass.

Columns and labels:
Format in all cases: cell-based
[1] = tested on: HT-29 (monolayer culture of a human colon carcinoma); test: Cytotoxic activity screening, HT-29 cells; conditions: Homo sapiens, HT-29, 72 h, three days of incubation, Crystal Violet, approximate IC50
Description: (§1) Cell Cultures. Cells were maintained in logarithmic phase of growth in Eagle's Minimum Essential Medium, with Earle's Balanced Salts, with 2.0 mM L-glutamine, with non-essential amino acids, without sodium bicarbonate (EMEM/neaa); supplemented with 10% Fetal Calf Serum (FCS), 10^−2 M sodium bicarbonate and 0.1 g/l penicillin-G+streptomycin sulfate.
(§2) A separate set of cultures without drug was seeded as control growth to ensure that cells remained in exponential phase of growth. All determinations were carried out in duplicate. After three days of incubation at 37° C., 10% CO2 in a 98% humid atmosphere, the wells were stained with 0.1% Crystal Violet. An approximately IC50 was determined by comparing the growth in wells with drug to the growth in wells control.

[2] = tested on: P-388 (suspension culture of a lymphoid neoplasm from DBA/2 mouse); test: Cytotoxic activity screening, P-388 cells; conditions: Mus musculus, P388, 72 h, three days of incubation, approximate IC50 vs control growth
Description: as §1
(§3) A simple screening procedure has been carried out to determine and compare the antitumour activity of these compounds, using an adapted form of the method described by Bergeron et al (1984). The tumour cell line employed have been P-388 (suspension culture of a lymphoid neoplasm from DBA/2 mouse), A-549 (monolayer culture of a human lung carcinoma), HT-29 (monolayer culture of a human colon carcinoma) and MEL-28 (monolayer culture of a human melanoma).
P-388 cell were seeded into 16 mm wells at 1×10^4 cells per well in 1 ml aliquots of MEM 5FCS containing the indicated concentration of drug. A separate set of cultures without drug was seeded as control growth to ensure that cells remained in exponential phase of growth. All determinations were carried out in duplicate.

[3] = tested on: A-549 (monolayer culture of a human lung carcinoma); test: Cytotoxic activity screening, A-549 cells; conditions: Homo sapiens, A549, 72 h, three days of incubation, Crystal Violet, approximate IC50
Description: as §1, §2

[4] = tested on: MEL-28 (monolayer culture of a human melanoma); test: Cytotoxic activity screening, MEL-28 cells; conditions: Homo sapiens, SK-MEL-28, 72 h, three days of incubation, Crystal Violet, approximate IC50
Description: as §1, §3
as §2, with “A-549, HT-29 and MEL-28 were seeded into 16 mm wells at 2×10^4 cells per well in 1 ml aliquots of MEM 10FCS containing the indicated concentration of drug. A separate” for “A separate”

DU-145 = test: Cytotoxic activity screening, DU-145 cells; conditions: Homo sapiens, DU-145, DU-145 cells
Description: [The source words this procedure for another cell line and reports this cell line under the same test.] as §1, §3
Examples of biological activities of the compounds described in the present application are in Table IV (IC50 (ng/mL)) on the following pages.

SMILES	IC50 [1]	IC50 [2]	IC50 [3]	IC50 [4]	IC50 (DU-145)
COc1c(C)cc2c(c1O)[C@@H]1C3[C@@H]4SC[C@H](NC(=O)C(NC(=O)C(C)NC(=O)/C=C/c5ccccc5)C(C)C)C(=O)OC[C@@H](c5c6c(c(C)c(OC(C)=O)c54)OCO6)N3[C@@H](O)[C@H](C2)N1C (some centres unmarked) [Compound 4u]	0.005 µg/mL (≈ 5.47 nM)	5 ng/mL (≈ 5.47 nM)	0.005 µg/mL (≈ 5.47 nM)	5 ng/mL (≈ 5.47 nM)	5 ng/mL (≈ 5.47 nM)
CCCCCCCCCCCCCCCC(=O)O[C@H]1CS[C@@H]2c3c(OC(C)=O)c(C)c4c(c3[C@H](COC1=O)N1C2[C@H]2c3c(cc(C)c(OC)c3O)C[C@@H]([C@@H]1C#N)N2C)OCO4 (some centres unmarked) [Compound 17f]	> 1 µg/mL	> 1000 ng/mL	> 1 µg/mL	> 1000 ng/mL	> 1000 ng/mL
CCCCCCCCCCCCCCCC(=O)N[C@H]1CS[C@@H]2c3c(OC(C)=O)c(C)c4c(c3[C@H](COC1=O)N1C2[C@H]2c3c(cc(C)c(OC)c3O)C[C@@H]([C@@H]1O)N2C)OCO4 (some centres unmarked) [Compound 4f]	0.1 µg/mL (≈ 117 nM)	100 ng/mL (≈ 117 nM)	0.1 µg/mL (≈ 117 nM)	100 ng/mL (≈ 117 nM)	100 ng/mL (≈ 117 nM)
COc1c(C)cc2c(c1O)[C@@H]1C3[C@@H]4SC[C@H](NC(=O)C(NC(=O)/C=C/c5ccccc5)C(C)C)C(=O)OC[C@@H](c5c6c(c(C)c(OC(C)=O)c54)OCO6)N3[C@@H](O)[C@H](C2)N1C (some centres unmarked) [Compound 4r]	0.0005 µg/mL (≈ 0.593 nM)	0.5 ng/mL (≈ 0.593 nM)	0.0005 µg/mL (≈ 0.593 nM)	0.5 ng/mL (≈ 0.593 nM)	0.5 ng/mL (≈ 0.593 nM)
CCCCCCCC(=O)N[C@H]1CS[C@@H]2c3c(OC(C)=O)c(C)c4c(c3[C@H](COC1=O)N1C2[C@H]2c3c(cc(C)c(OC)c3O)C[C@@H]([C@@H]1C#N)N2C)OCO4 (some centres unmarked) [Compound 3e]	0.001 µg/mL (≈ 1.34 nM)	1 ng/mL (≈ 1.34 nM)	0.001 µg/mL (≈ 1.34 nM)	1 ng/mL (≈ 1.34 nM)	1 ng/mL (≈ 1.34 nM)
COc1c(C)cc2c(c1O)[C@@H]1C3[C@@H]4SC[C@@H](NC(C)=O)C(=O)OC[C@@H](c5c6c(c(C)c(O)c54)OCO6)N3[C@@H](C#N)[C@H](C2)N1C (some centres unmarked) [Compound 25]	0.01 µg/mL (≈ 16.1 nM)	–	0.01 µg/mL (≈ 16.1 nM)	–	–
CC(=O)N[C@@H]1CS[C@@H]2c3c(OC(C)=O)c(C)c4c(c3[C@H](COC1=O)N1C2[C@H]2c3c(cc(C)c(O)c3O)C[C@@H]([C@@H]1C#N)N2C)OCO4 (some centres unmarked) [Compound 26]	0.1 µg/mL (≈ 154 nM)	–	0.1 µg/mL (≈ 154 nM)	–	–
CC(=O)Oc1c(C)c2c(c3c1[C@H]1SC[C@H](N)C(=O)OC[C@@H]3N3C1[C@H]1c4c(cc(C)c(O)c4O)C[C@@H]([C@@H]3C#N)N1C)OCO2 (some centres unmarked) [Compound 24]	0.1 µg/mL (≈ 164 nM)	–	0.1 µg/mL (≈ 164 nM)	–	–
COc1c(C)cc2c(c1O)[C@@H]1C3[C@@H]4SC[C@@H](O)C(=O)OC[C@@H](c5c6c(c(C)c(OC(C)=O)c54)OCO6)N3[C@@H](C#N)[C@H](C2)N1C (some centres unmarked) [Compound 16*]	0.01 µg/mL (≈ 16 nM)	–	0.01 µg/mL (≈ 16 nM)	–	–
CCCN[C@H]1CS[C@@H]2c3c(OC(C)=O)c(C)c4c(c3[C@H](COC1=O)N1C2[C@H]2c3c(cc(C)c(OC)c3O)C[C@@H]([C@@H]1C#N)N2C)OCO4 (some centres unmarked) [Compound 3o]	0.005 µg/mL (≈ 7.52 nM)	–	0.005 µg/mL (≈ 7.52 nM)	–	–
COc1c(C)cc2c(c1O)[C@@H]1C3[C@@H]4SC[C@H](OS(C)(=O)=O)C(=O)OC[C@@H](c5c6c(c(C)c(OC(C)=O)c54)OCO6)N3[C@@H](C#N)[C@H](C2)N1C (some centres unmarked) [Compound 17ll]	0.001 µg/mL (≈ 1.42 nM)	1 ng/mL (≈ 1.42 nM)	0.001 µg/mL (≈ 1.42 nM)	1 ng/mL (≈ 1.42 nM)	–
CCCCCCCCCCCCCCCC(=O)O[C@H]1CS[C@@H]2c3c(OC(C)=O)c(C)c4c(c3[C@H](COC1=O)N1C2[C@H]2c3c(cc(C)c(OC)c3O)C[C@@H]([C@@H]1O)N2C)OCO4 (some centres unmarked) [Compound 21f]	> 1 µg/mL	–	> 1 µg/mL	–	–
